According to US8859580B2 (Boehringer Ingelheim International GmbH, priority 2007, dated 2014):

target: T1, 11β-HSD1 (Homo sapiens, UniProt P28845); assay: In vitro inhibition of 11β-HSD1, HTRF detection of cortisol generated from cortisone by human liver microsomes; format: biochemical; details: 11β-HSD IC50 (nM), 1 hour at 37° C., pH 6.0, NADPH 200 μM, cortisone 80 nM, inhibition relative to carbenoxolone signal
T1 construct: detecting cortisol generated from cortisterone by human liver microsomes; from tissue; host or cells: human liver microsomes
T1 sequence (P28845 whole entry): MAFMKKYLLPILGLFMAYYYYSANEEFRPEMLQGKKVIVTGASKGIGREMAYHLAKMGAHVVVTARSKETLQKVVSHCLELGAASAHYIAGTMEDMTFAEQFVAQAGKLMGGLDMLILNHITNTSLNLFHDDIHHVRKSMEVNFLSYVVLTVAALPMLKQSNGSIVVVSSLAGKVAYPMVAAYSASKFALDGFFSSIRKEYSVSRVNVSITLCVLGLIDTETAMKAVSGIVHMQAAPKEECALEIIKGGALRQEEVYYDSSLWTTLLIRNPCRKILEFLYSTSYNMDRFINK
Outline: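 Inhibition expressed against the carbenoxolone signal and fitted to IC50 curves. Readout: HTRF competition between microsomal cortisol and XL665-labelled cortisol for Eu-cryptate anti-cortisol antibody (typically 2 h), with emission ratio 665/615 calibrated to cortisol concentration.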

Q: How did the IC50 turn out when `CC1(C)[C@H]2Cc3cc4nccnc4cc3[C@]1(C)CCN2C(=O)c1ccc2nc[nH]c2c1` [Example 235, (3H-Benzoimidazol-5-yl)-[(7R,11S)-6,7,8,9,10,11-hexahydro-11,13,13-trimethyl-6,10-methano-pyrazino[2,3-i][3]benzazocin-8-yl]-methanone] was run?
A: The IC50 was 95 nM.

Q: `COc1ccc2c(c1N)[C@]1(C)CCN(C(=O)c3ccc4nc[nH]c4c3)[C@H](C2)[C@H]1C` [Example 267, (3H-Benzoimidazol-5-yl)-[(2R,6R,11S)-7-amino-8-methoxy-6,11-dimethyl-1,2,5,6-tetrahydro-4H-2,6-methano-benzo[d]azocin-3-yl]-methanone] was tested. Which IC50 did it give?
A: Its IC50 is 66 nM.

Q: With `Cc1noc(C)c1C(=O)N1CC[C@@]2(C)c3cccc(O)c3C[C@@H]1C2(C)C` [Example 121] as the compound, how does the IC50 read?
A: The IC50 was 4120 nM.

Q: `CC(O)(c1ccc(C(=O)N2CC[C@@]3(C)c4cccc(O)c4C[C@@H]2C3(C)C)cc1)C(F)(F)F` (stereo partly drawn) [Example 16, [(2R,6S)-10-Hydroxy-6,11,11-trimethyl-1,2,5,6-tetrahydro-4H-2,6-methano-benzo[d]azocin-3-yl]-[4-(2,2,2-trifluoro-1-hydroxy-1-methyl-ethyl)-phenyl]-methanone] was tested. Which IC50 did it give?
A: Its IC50 is 360 nM.

Q: For `CC1(C)[C@H]2Cc3c(O)cccc3[C@]1(C)CCN2C(=O)c1cccc(C#N)c1` [Example 10, 3-[(2R,6S)-10-Hydroxy-6,11,11-trimethyl-1,2,5,6-tetrahydro-4H-2,6-methano-benzo[d]azocine-3-carbonyl]-benzonitrile], which IC50 is on record?
A: Its IC50 is 1780 nM.

Q: Which IC50 does the source give for `COc1cccc2c1C[C@H]1N(C(=O)c3ccc4nc[nH]c4c3)CC[C@]2(C)C1(C)C` [Example 76, (3H-Benzoimidazol-5-yl)-[(2R,6S)-10-methoxy-6,11,11-trimethyl-1,2,5,6-tetrahydro-4H-2,6-methano-benzo[d]azocin-3-yl]-methanone] here?
A: Its IC50 is 166 nM.

Q: Which IC50 does the source give for `CC1(C)[C@H]2Cc3cc(C#N)ccc3[C@]1(C)CCN2C(=O)c1ccc2nc[nH]c2c1` [Example 206, (2R,6S)-3-(3H-Benzoimidazole-5-carbonyl)-6,11,11-trimethyl-1,2,3,4,5,6-hexahydro-2,6-methano-benzo[d]azocine-9-carbonitrile] here?
A: Its IC50 is 47 nM.

Q: How did the IC50 turn out when `CC12CCN(C(=O)c3ccc4nc[nH]c4c3)C(Cc3ccc(Cl)cc31)C2(C)C` (stereo not drawn) [Example 75, (3H-Benzoimidazol-5-yl)-(8-chloro-6,11,11-trimethyl-1,2,5,6-tetrahydro-4H-2,6-methano-benzo[d]azocin-3-yl)-methanone] was run?
A: Its IC50 is 395 nM.

Q: With `CC1(C)[C@H]2Cc3c(O)cccc3[C@]1(C)CCN2C(=O)c1csc2ccccc12` [Example 217, Benzo[b]thiophen-3-yl-[(2R,6S)-10-hydroxy-6,11,11-trimethyl-1,2,5,6-tetrahydro-4H-2,6-methano-benzo[d]azocin-3-yl]-methanone] as the compound, how does the IC50 read?
A: Its IC50 is 410 nM.

Q: With `CC12CCN(C(=O)c3ccc4nc[nH]c4c3)C(Cc3ccc(O)cc31)C2` (stereo not drawn) [Example 51, (3H-Benzoimidazol-5-yl)-(8-hydroxy-6-methyl-1,2,5,6-tetrahydro-4H-2,6-methano-benzo[d]azocin-3-yl)-methanone] as the compound, how does the IC50 read?
A: The IC50 was 629 nM.

Q: With `Cc1nc2cc3c(cc2n1C)[C@]1(C)CCN(C(=O)c2ccc4nc[nH]c4c2)[C@H](C3)C1(C)C` [Example 242, (3H-Benzoimidazol-5-yl)-[(6R,10S)-5,6,7,8,9,10-hexahydro-1,2,10,12,12-pentamethyl-6,10-methano-imidazo[5,4-i][3]benzazocin-7-yl]-methanone] as the compound, how does the IC50 read?
A: The IC50 was 547 nM.

Q: With `C[C@@H]1[C@H]2Cc3ccc(C(=O)N(C)C)cc3[C@]1(C)CCN2C(=O)c1ccc2nc[nH]c2c1` [Example 155, (2R,6R,11S)-3-(3H-Benzoimidazole-5-carbonyl)-6,11-dimethyl-1,2,3,4,5,6-hexahydro-2,6-methano-benzo[d]azocine-8-carboxylic acid dimethylamide] as the compound, how does the IC50 read?
A: Its IC50 is 354 nM.

Q: Which IC50 does the source give for `CN(C)C(=O)c1ccc2c(c1)CC1N(C(=O)c3ccc4nc[nH]c4c3)CCC2(C)C1(C)C` (stereo not drawn) [Example 161, 3-(3H-Benzoimidazole-5-carbonyl)-6,11,11-trimethyl-1,2,3,4,5,6-hexahydro-2,6-methano-benzo[d]azocine-9-carboxylic acid dimethylamide] here?
A: The IC50 was 1750 nM.

Q: Which IC50 does the source give for `CC1(C)[C@H]2Cc3c(O)cccc3[C@]1(C)CCN2C(=O)c1ccc(CN2CCOCC2)cc1` [Example 24, [(2R,6S)-10-Hydroxy-6,11,11-trimethyl-1,2,5,6-tetrahydro-4H-2,6-methano-benzo[d]azocin-3-yl]-(4-morpholin-4-ylmethyl-phenyl)-methanone] here?
A: Its IC50 is 134 nM.

Q: `CC1(C)[C@H]2Cc3c(O)cccc3[C@]1(C)CCN2C(=O)c1ccc2c(c1)OCCO2` [Example 20, (2,3-Dihydro-benzo[1,4]dioxin-6-yl)-[(2R,6S)-10-hydroxy-6,11,11-trimethyl-1,2,5,6-tetrahydro-4H-2,6-methano-benzo[d]azocin-3-yl]-methanone] was tested. Which IC50 did it give?
A: The IC50 was 254 nM.

Q: `CC1(C)[C@H]2Cc3c(O)cccc3[C@]1(C)CCN2C(=O)c1ccc2c(c1)NCC(=O)N2` [Example 44, 6-[(2R,6S)-10-Hydroxy-6,11,11-trimethyl-1,2,5,6-tetrahydro-4H-2,6-methano-benzo[d]azocine-3-carbonyl]-3,4-dihydro-1H-quinoxalin-2-one] was tested. Which IC50 did it give?
A: Its IC50 is 200 nM.

Q: For `COc1ccccc1C(=O)N1CC[C@@]2(C)c3cccc(O)c3C[C@@H]1C2(C)C` [Example 6, [(2R,6S)-10-Hydroxy-6,11,11-trimethyl-1,2,5,6-tetrahydro-4H-2,6-methano-benzo[d]azocin-3-yl)-(2-methoxy-phenyl]-methanone], which IC50 is on record?
A: Its IC50 is 1060 nM.

Q: Which IC50 does the source give for `CC12CCN(C(=O)c3ccc4nc[nH]c4c3)C(Cc3cc(C#N)ccc31)C2(C)C` (stereo not drawn) [Example 96, 3-(1H-Benzoimidazole-5-carbonyl)-6,11,11-trimethyl-1,2,3,4,5,6-hexahydro-2,6-methano-benzo[d]azocine-9-carbonitrile] here?
A: The IC50 was 95 nM.

Q: How did the IC50 turn out when `Cc1ccc(C(=O)N2CC[C@@]3(C)c4cccc(O)c4C[C@@H]2C3(C)C)cc1` [Example 12, [(2R,6S)-10-Hydroxy-6,11,11-trimethyl-1,2,5,6-tetrahydro-4H-2,6-methano-benzo[d]azocin-3-yl]-p-tolyl-methanone] was run?
A: The IC50 was 792 nM.

Q: For `COc1cc2c(cc1C)C[C@H]1N(C(=O)c3ccc4nc[nH]c4c3)CC[C@]2(C)C1(C)C` (stereo in doubt) [Example 62, (3H-Benzoimidazol-5-yl)-[(2R,6S)-8-methoxy-6,9,11,11-tetramethyl-1,2,5,6-tetrahydro-4H-2,6-methano-benzo[d]azocin-3-yl]-methanone], which IC50 is on record?
A: Its IC50 is 109 nM.

Q: `CC1(C)[C@H]2Cc3c(O)cccc3[C@]1(C)CCN2C(=O)c1ccc2c(c1)NC(=O)C2` [Example 33, 6-[(2R,6S)-10-Hydroxy-6,11,11-trimethyl 1,2,5,6-tetrahydro-4H-2,6-methano-benzo[d]azocine-3-carbonyl]-1,3-dihydro-indol-2-one] was tested. Which IC50 did it give?
A: Its IC50 is 3490 nM.

Q: `CC1(C)[C@H]2Cc3cc4nc[nH]c4cc3[C@]1(C)CCN2C(=O)c1ccc2nc[nH]c2c1` [Example 239, (3H-Benzoimidazol-5-yl)-[(6R,10S)-5,6,7,8,9,10-hexahydro-10,12,12-trimethyl-6,10-methano-1H-imidazo[5,4-i][3]benzazocin-7-yl]-methanone] was tested. Which IC50 did it give?
A: The IC50 was 24 nM.

Q: Which IC50 does the source give for `O=C(c1ccc2nc[nH]c2c1)N1CCC2CC1Cc1ccc(O)cc12` (stereo not drawn) [Example 55, (3H-Benzoimidazol-5-yl)-(8-hydroxy-1,2,5,6-tetrahydro-4H-2,6-methano-benzo[d]azocin-3-yl)-methanone] here?
A: The IC50 was 746 nM.

Q: Which IC50 does the source give for `CC1(C)[C@H]2Cc3c(O)cccc3[C@]1(C)CCN2C(=O)c1ccc(CN)cc1` [Example 117, (4-Aminomethyl-phenyl)-[(2R,6S)-10-hydroxy-6,11,11-trimethyl-1,2,5,6-tetrahydro-4H-2,6-methano-benzo[d]azocin-3-yl]-methanone] here?
A: The IC50 was 1420 nM.

Q: How did the IC50 turn out when `CC1(C)[C@H]2Cc3c(O)cccc3[C@]1(C)CCN2C(=O)c1ccc2cc[nH]c2c1` [Example 31, [(2R,6S)-10-Hydroxy-6,11,11-trimethyl-1,2,5,6-tetrahydro-4H-2,6-methano-benzo[d]azocin-3-yl]-(1H-indol-6-yl)-methanone] was run?
A: Its IC50 is 88 nM.

Q: How did the IC50 turn out when `CC(C)(O)c1ccc2c(c1)[C@]1(C)CCN(C(=O)c3ccc4nc[nH]c4c3)[C@H](C2)C1(C)C` [Example 229, (3H-Benzoimidazol-5-yl)-[(2R,6S)-8-(1-hydroxy-1-methyl-ethyl)-6,11,11-trimethyl-1,2,5,6-tetrahydro-4H-2,6-methano-benzo[d]azocin-3-yl]-methanone] was run?
A: The IC50 was 68 nM.

Q: Which IC50 does the source give for `Cc1cc(C(=O)N2CC[C@@]3(C)c4cccc(O)c4C[C@@H]2C3(C)C)cc2nc[nH]c12` [Example 225, [(2R,6S)-10-Hydroxy-6,11,11-trimethyl-1,2,5,6-tetrahydro-4H-2,6-methano-benzo[d]azocin-3-yl]-(7-methyl-1H-benzoimidazol-5-yl)-methanone] here?
A: Its IC50 is 98 nM.
